According to patent US20200339544A1 (JOINT STOCK COMPANY "BIOCAD", priority 2017, published 2020):
Like-named read-outs stand apart in the source and are kept apart here.

Legend:
[1] = Chemical stability in simulated gastric fluid (SGF); type: physicochemical; settings: SGF without enzymes, pH 1,4; 10 μm; 2 hours at 37° C.; substance amount remaining
Experimental: (§1) 1) Determination of chemical stability in simulated intestinal fluid, simulated gastric fluid and human blood plasma.
(§2) SGF concentrate without enzymes, pH=1,4 (Sigma Ireland, cat #01651) was used as simulated gastric fluid. Initial candidate solution (10 mM in DMSO) was diluted with a SGF working solution to a concentration of 10 μm (test solution). The test solution was incubated in a dry block thermostat for 2 hours at 37° C. SIF concentrate without enzymes, pH=6.5 (Sigma Ireland, cat #55331) was used as simulated intestinal fluid. Initial candidate solution (10 mM in DMSO) was diluted with a SIF working solution to a concentration of 10 μm (test solution). The test solution was incubated in a dry block thermostat for 2 hours at 37° C. HPLC with Agilent 1200 liquid chromatography system (Agilent, USA) was employed to determine peak areas of the compounds in test samples, said peak areas corresponding to the initial test time (prior to incubation) and the final test time (after incubation in a dry block thermostat for 2 hours at 37° C.). We used gradient elution (1 mL/min flow rate). Substance amount in % in a sample after thermostatting was determined.
(§3) The stability of the compounds was estimated.

[2] = Chemical stability in simulated intestinal fluid (SIF); type: physicochemical; settings: SIF without enzymes, pH 6.5; 10 μm; 2 hours at 37° C.; substance amount remaining
Experimental: as §1, §2, §3

[3] = Chemical stability in human blood plasma; type: in vitro ADME; settings: pooled human blood plasma; 10 μm; 4 hours at 37° C.; substance amount remaining
Method in brief: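 Pooled plasma from ten healthy donors was spiked to 10 μM from a 10 mM DMSO stock and held 4 h at 37 °C. After acetonitrile protein precipitation, HPLC peak areas before and after incubation gave the percentage of compound remaining.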

[4] = molecular target: T1, WT EGFR (Wild-Type EGFR) (Homo sapiens, UniProt P00533); test: Inhibition of WT EGFR kinase activity (ADP-Glo); type: biochemical
T1 construct: purchased SignalChem
Method in brief: (§4)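 Recombinant WT or double-mutant EGFR was incubated with a solution of 0.5 mg/mL peptide substrate and 50 μM ATP for 180 minutes at 37° C. Kinase activity was detected by ADP-Glo luminescence. IC50 values came from a four-parameter logistic fit.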

[5] = molecular target: T2, DM EGFR (DoubleMutantEGFR, L828R/T790M) (Homo sapiens, UniProt P00533, L858R/T790M); test: Inhibition of DM EGFR kinase activity (ADP-Glo); type: biochemical; settings: for IC50: inhibition of kinase activity, EGFR DM (L828R/T790M); for SI, IC50(WT)/IC50(DM): selectivity index, kinase EGFR WT vs EGFR DM
T2 construct: purchased SignalChem
Method in brief: as §4

[6] = system: A549 (lung adenocarcinoma, WT); test: Antiproliferative activity on A549 cells (Alamar Blue); type: cell-based; settings: Homo sapiens, antiproliferative test
Method in brief: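 Cells seeded at 5*10^3/well in RPMI-1640 with 2% FBS, attached 16-18 h at 37° C, then exposed to compounds (≤1% DMSO) for 72 h. Alamar Blue added for 3-5 h; fluorescence read at 540/590 nm. IC50 from four-parameter logistic fit.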

[7] = system: HCC827 (lung adenocarcinoma, SM, exon19delE746-A750); test: Antiproliferative activity on HCC827 cells (Alamar Blue); type: cell-based; settings: Homo sapiens, antiproliferative test
Experimental: Antiproliferative activity of EGFR inhibitors (Tables 15 and 16) was measured in cell-based bioassay on continuous epithelial cell cultures: A549 (lung adenocarcinoma, ATCC® CRM-CCL-185™—WT), HCC827 (lung adenocarcinoma, ATCC® CRL-2868™—SM (SingleMutantEGFR, exon19delE746-A750)) and H1975 (lung adenocarcinoma, ATCC® CRL-5908™—DM (DoubleMutantEGFR, L828R/T790M)) using cell viability reagent Alamar Blue (ThermoFisher, # DAL1100). Cells were cultured in 10% FBS-supplemented (Gibco, #16140071) RPMI-1640 (PanEco, S330p) for at least 1 passage after thawing, washed with PBS and passaged in 96-well culture plates (3599, Corning) with RPMI-1640 growth medium supplemented with 2% FBS in an amount of 5*10^3 cells/well for A549, 10*10^3 cells/well for HCC827 and 15*10^3 cells/well for H1975 in 100 μL, and incubated at 37° C. in an incubator (Thermo Forma, USA) under 5% of CO2 for 16-18 h for cell attachment.
The test compounds were dissolved in DMSO in the selected range of concentrations and transferred to RPMI-1640 medium (PanEco, S330p) supplemented with 2% FBS. After adding 50 μl of the prepared dilutions to the cells, the incubation mixture contained the final concentrations of the test substances and no more than 1% DMSO. The plates were Incubated at 37° C. for 72 h. After incubation, 15 μl of Alamar Blue vital dye (ThermoFisher, # DAL1100) was added to each well. The plates were shaken on an orbital shaker (Biosan, Latvia) and further incubated for 3-5 h in a CO2 incubator (Thermo Forma, USA). Number of living cells was estimated using a plate spectrophotometer Infinite M200Pro, (Tecan, Switzerland) measuring fluorescent signal at the excitation wavelength (λEx) of 540 nm and emission wavelength (λEm) of 590 nm.
IC50 was calculated using Magellan 7.2 software (Tecan, Switzerland) approximating experimental points by four-parameter logistic model with the optimization by Levenberg-Marquardt.

[8] = system: H1975 (lung adenocarcinoma, DM, L828R/T790M); test: Antiproliferative activity on H1975 cells (Alamar Blue); type: cell-based; settings: for IC50: Homo sapiens, NCI-H1975, H1975 cells; for SI IC50(A549)/IC50(DM): selectivity index, A549 vs H1975 cells
Method in brief: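 H1975 cells (15*10^3/well) attached 16-18 h in RPMI-1640 with 2% FBS, then exposed to compounds (≤1% DMSO final) for 72 h at 37 °C. Viability by Alamar Blue fluorescence (Ex 540/Em 590 nm) after 3-5 h; IC50 from four-parameter logistic fit.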

[9] = General cytotoxicity on HepG2 cells; type: cell-based; settings: human; general cytotoxicity, HepG2 cells, 72 hours, average of several tests
Method in brief: (§5)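 HepG2 cells seeded at 2*10^4 cells per well and compounds added in DMEM with 2% FBS for 72 h at 37 °C. Viability read with Alamar Blue and CC50 derived as for IC50. Therapeutic index taken as HepG2 CC50 over H1975 IC50.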

[10] = system: HepG2 cells; test: General cytotoxicity on HepG2 cells; type: cell-based; settings: therapeutic index, CC50 HepG2 / IC50 H1975
Method in brief: as §5

[11] = average values obtained in several tests, Table 16, read-out: H1975 (DM) IC50
[12] = antiproliferative test, Table 15, read-out: IC50 H1975 (DM)

Stability in SGF, % [1]	Stability in SIF, % [2]	Stability in blood plasma, % [3]	IC50 [4]	IC50 [5]	SI, IC50(WT)/IC50(DM) [5]	IC50 [6]	IC50 [7]	IC50 [8, 11]	IC50 [8, 12]	SMILES	SI IC50(A549)/IC50(DM) [8]	CC50 at 72 h [9]	TI, CC50/IC50 [10]
100.0%	100.0%	85.4%	170 nM	6.44 nM	26.43	12400 nM	6.2 nM	351 nM	351 nM	C=CC(=O)Nc1cc(Nc2nccc(C(=O)c3cccc(F)c3)n2)c(OC)cc1N(C)CCN(C)C [EGFR_3365_11, N-(2-((2-(dimethylamino)ethyl)(methyl)amino)-5-((4-(3-fluorobenzoyl)pyrimidin-2-yl)amino)-4-methoxyphenyl) acrylamide]	35.37	15000 nM	43
99.0%	100.0%	82.7%	514 nM	6.95 nM	74.07	16200 nM	111 nM	164 nM	164 nM	C=CC(=O)Nc1cc(Nc2nccc(C(=O)c3cccc([N+](=O)[O-])c3)n2)c(OC)cc1N(C)CCN(C)C [EGFR_3365_34]	98.26	10300 nM	62
